As usually defined, the MIC is the lowest concentration that inhibits growth of the organism.

These results are taken from ChEMBL document CHEMBL3045072, “Anti-tyrosinase, antioxidant and antimicrobial activities of hydroxycinnamoylamides” (Med Chem Res, 2013).

The nature of data set [1]: Inhibition of autoxidation of pure triacylglycerols of sunflower oil at 1 mM by iodometric analysis. The note with it: 1000 µM. Type of data set: toxicity.
Data set [2] concerns Radical scavenging activity. Kind of data set: Antioxidant activity assessed as DPPH radical scavenging activity at 3.6 mM after 20 min. Type of data set: functional. Background: DPPH is a stable violet radical that fades when it is reduced.
In data set [3] the test system is Radical scavenging activity. Briefly: Antioxidant activity assessed as DPPH radical scavenging activity at 3.6 mM after 10 min. Type of data set: functional.
In data set [4] the test system is Radical scavenging activity. Kind of data set: Antioxidant activity assessed as DPPH radical scavenging activity at 1.8 mM after 20 min. It is filed as functional.
Data set [5] concerns Radical scavenging activity. Briefly: Antioxidant activity assessed as DPPH radical scavenging activity at 0.9 mM after 20 min. Type of data set: functional.
Data set [6] concerns Radical scavenging activity. Briefly: Antioxidant activity assessed as DPPH radical scavenging activity at 1.8 mM after 10 min. Type of data set: functional.
For data set [7], the system named is Radical scavenging activity. Briefly: Antioxidant activity assessed as DPPH radical scavenging activity at 0.9 mM after 10 min. Type of data set: functional.
Data set [8] deals with Streptococcus pyogenes. Briefly: Antimicrobial activity against Streptococcus pyogenes 10535 assessed as growth inhibition after 24 hr by serial dilution method. It is filed as functional. Conditions: Streptococcus pyogenes, 10535, 24 h; call rule not given here.
Data set [9] relates to Staphylococcus aureus. Kind of data set: Antimicrobial activity against Staphylococcus aureus 209 assessed as growth inhibition after 24 hr by serial dilution method. It is filed as functional. The note with it: Staphylococcus aureus, 209, 24 h.

The structures appear in SMILES notation. Converted amounts (≈) assume the structure as drawn.

For the compound `COC(=O)[C@H](Cc1ccc(O)c(O)c1)NC(=O)/C=C/c1ccccc1` [N-CINNAMOYL-DOPA METHYL ESTER], in data set [1], the “inhibition (INH)” value was “Active”. The Activity in data set [2] was 88.1%; in data set [3] it was 85%; in [4] it was 48.4%; in data set [5] it was 26.6%; in data set [6], 45.5%; in data set [7], 24.4%.
Take `O=C(O)/C=C/c1ccccc1` [CINNAMIC ACID]: the “inhibition (INH)” value in data set [1] is recorded as “Not Active”. In addition, the Activity was found to be 0.35% in data set [2]; 0.32% in [3]; 0.35% in data set [4]; 0.32% in data set [5]; 0.32% in data set [6]; 0.3% in data set [7].
Turning to `COC(=O)[C@H](Cc1ccccc1)NC(=O)/C=C/c1ccc(O)c(O)c1` [N-CAFFEOYL-PHENYLALANINE METHYL ESTER], in data set [1], the “inhibition (INH)” value is “Active”. The Activity in data set [2] was 90.5%; in data set [3] it was 90.3%; in [4] it was 54.6%; in data set [5] it was 29.7%; in data set [6], 53.5%; in [7] it was 28.8%.
Turning to `O=C(/C=C/c1ccc(O)c(O)c1)NCCc1c[nH]c2ccccc12`, the MIC in [8] was 62.5 µg/mL (≈ 194 µM); in data set [9], 125 µg/mL (≈ 388 µM).
For `COC(=O)[C@H](Cc1ccc(O)cc1)NC(=O)/C=C/c1ccc(O)c(OC)c1`, the MIC in data set [9] was 15 µg/mL (≈ 40.4 µM). Besides, the Activity in data set [2] stood at 29.2%; in data set [3], 24.8%; in data set [4], 16.2%; in data set [5], 8.79%; in data set [6], 13.7%; in data set [7], 7.04%.
With `COC(=O)[C@H](Cc1ccc(O)c(O)c1)NC(=O)/C=C/c1cc(OC)c(O)c(OC)c1`, the “inhibition (INH)” value in data set [1] is given as “Active”. Besides, the Activity in data set [2] was 82.8%; in data set [3], 80.9%; in [4], 45.8%; in data set [5] it was 25.4%; in data set [6], 43.9%; in [7] it was 23.8%.
Consider `NC[C@H]1O[C@H](O[C@H]2[C@H](O)[C@@H](O[C@H]3O[C@H](CO)[C@@H](O)[C@H](N)[C@H]3O)[C@H](N)C[C@@H]2N)[C@H](N)C[C@@H]1O` [TOBRAMYCIN], for which the MIC stood at 7.81 µg/mL (≈ 16.7 µM) in data set [8] and 15.6 µg/mL (≈ 33.4 µM) in data set [9].
Regarding `COC(=O)[C@H](Cc1ccc(O)c(O)c1)NC(=O)/C=C/c1ccc(O)c(OC)c1`, the MIC in data set [9] is 125 µg/mL (≈ 323 µM). For the same compound, the Activity was found to be 87% in data set [2]; 83.8% in data set [3]; 50.6% in [4]; 28.5% in [5]; 44.8% in [6]; 24.3% in data set [7].
With `COC(=O)[C@H](Cc1ccc(O)cc1)NC(=O)/C=C/c1cc(OC)c(O)c(OC)c1`, the results for the MIC in data set [8] and in data set [9] were 250 µg/mL (≈ 623 µM) and 125 µg/mL (≈ 311 µM), respectively. Besides, the Activity is 45.3% in [2]; 43% in data set [3]; 25% in data set [4]; 15.6% in data set [5]; 23.1% in data set [6]; 14.2% in [7].
Turning to `COC(=O)[C@H](Cc1ccc(O)c(O)c1)NC(=O)/C=C/c1ccc(O)c(O)c1` [N-CAFFEOYL-DOPA METHYL ESTER], in data set [1], the “inhibition (INH)” value was “Active”. In addition, the Activity in data set [2] amounted to 88.8%; in data set [3], 88.7%; in data set [4], 86%; in data set [5], 50.5%; in [6] it was 82.5%; in data set [7], 44.8%.
Regarding `COc1cc(/C=C/C(=O)NCCc2ccc(O)c(O)c2)ccc1O` [N-TRANS-FERULOYLDOPAMINE], the results for the MIC in [8] and in data set [9] were 125 µg/mL (≈ 380 µM) and 62.5 µg/mL (≈ 190 µM), respectively.
Consider `COc1cc(/C=C/C(=O)NCCc2ccc(O)cc2)ccc1O` [N-TRANS-FERULOYL TYRAMINE], for which the MIC in data set [8] was 125 µg/mL (≈ 399 µM); in data set [9], 62.5 µg/mL (≈ 199 µM).
The matching figures for `COc1cc(/C=C/C(=O)NCCc2c[nH]c3ccccc23)cc(OC)c1O`: 62.5 µg/mL (≈ 171 µM) and 250 µg/mL (≈ 682 µM).
